In paper PMC5218480 (PLoS ONE, 2017):

Tested on: MV-4-11 cells
Assay: Gene expression microarray analysis (Affymetrix PrimeView) and GSEA
Type: cell-based, human
Design: RFU PODN (11730768_x_at) / Fold change /veh PODN (11730768_x_at) / RFU LINC00158 (11744669_a_at) / Fold change /veh LINC00158 (11744669_a_at) / RFU DUSP10 (11751237_a_at) / Fold change /veh DUSP10 (11751237_a_at) / RFU ID3 (11757404_x_at) / Fold change /veh ID3 (11757404_x_at) / RFU PLEKHG5 (11737974_s_at) / Fold change /veh PLEKHG5 (11737974_s_at) / RFU LRRC4B (11730491_at) / Fold change /veh LRRC4B (11730491_at) / RFU GIMAP4 (11747438_a_at) / Fold change /veh GIMAP4 (11747438_a_at) / RFU KRT8 (11758183_x_at) / Fold change /veh KRT8 (11758183_x_at) / RFU CNN1 (11734310_a_at) / Fold change /veh CNN1 (11734310_a_at) / RFU VPS37D (11726825_at) / Fold change /veh VPS37D (11726825_at) / RFU C10orf10 (11716522_x_at) / Fold change /veh C10orf10 (11716522_x_at) / RFU KIR2DL2 /// KIR2DL4 /// KIR2DL5A /// KIR2DL5B /// KIR2DS1 /// KIR2DS2 /// KIR2DS3 /// KIR2DS4 /// KIR3DL3 /// KIR3DL3 /// KIR3DS1 (11738374_at) / Fold change /veh KIR2DL2 /// KIR2DL4 /// KIR2DL5A /// KIR2DL5B /// KIR2DS1 /// KIR2DS2 /// KIR2DS3 /// KIR2DS4 /// KIR3DL3 /// KIR3DL3 /// KIR3DS1 (11738374_at) / RFU C1QL1 (11718748_at) / Fold change /veh C1QL1 (11718748_at) / RFU TMPRSS4 (11747572_a_at) / Fold change /veh TMPRSS4 (11747572_a_at) / RFU HAMP (11756126_x_at) / Fold change /veh HAMP (11756126_x_at) / RFU RNFT2 (11725882_a_at) / Fold change /veh RNFT2 (11725882_a_at) / RFU NR4A2 (11747474_a_at) / Fold change /veh NR4A2 (11747474_a_at) / RFU ABCC12 (11746883_a_at) / Fold change /veh ABCC12 (11746883_a_at) / RFU TMEM136 (11760407_x_at) / Fold change /veh TMEM136 (11760407_x_at) / RFU CLDN22 /// WWC2 (11732394_at) / Fold change /veh CLDN22 /// WWC2 (11732394_at) / RFU HLA-DPB1 (11760878_x_at) / Fold change /veh HLA-DPB1 (11760878_x_at) / RFU SPINT1 (11716480_a_at) / Fold change /veh SPINT1 (11716480_a_at) / RFU GAP43 (11754022_s_at) / Fold change /veh GAP43 (11754022_s_at) / RFU A4GNT (11735810_at) / Fold change /veh A4GNT (11735810_at) / RFU PRB3 (11715151_x_at) / Fold change /veh PRB3 (11715151_x_at) / RFU TUBB4B (11761932_at) / Fold change /veh TUBB4B (11761932_at) / RFU CAPN14 (11732068_a_at) / Fold change /veh CAPN14 (11732068_a_at) / RFU TMCC2 (11721928_a_at) / Fold change /veh TMCC2 (11721928_a_at) / RFU IRGQ (11745062_a_at) / Fold change /veh IRGQ (11745062_a_at) / RFU FAM174B (11720279_a_at) / Fold change /veh FAM174B (11720279_a_at) / RFU TMPRSS4 (11748680_a_at) / Fold change /veh TMPRSS4 (11748680_a_at) / RFU FAM212B (11763350_a_at) / Fold change /veh FAM212B (11763350_a_at) / RFU PLEKHG5 (11743358_a_at) / Fold change /veh PLEKHG5 (11743358_a_at) / RFU ZSCAN30 (11745921_a_at) / Fold change /veh ZSCAN30 (11745921_a_at) / RFU CMKLR1 (11741424_a_at) / Fold change /veh CMKLR1 (11741424_a_at) / RFU LOC101060620 /// MAPK8IP1 (11723275_at) / Fold change /veh LOC101060620 /// MAPK8IP1 (11723275_at) / RFU SPTSSB (11747773_x_at) / Fold change /veh SPTSSB (11747773_x_at) / RFU PRSS12 (11739890_at) / Fold change /veh PRSS12 (11739890_at) / RFU BIN1 (11741810_x_at) / Fold change /veh BIN1 (11741810_x_at) / RFU WNT11 (11732464_a_at) / Fold change /veh WNT11 (11732464_a_at) / RFU C10orf10 (11716521_a_at) / Fold change /veh C10orf10 (11716521_a_at) / RFU C5orf56 (11738089_at) / Fold change /veh C5orf56 (11738089_at) / RFU CYB561 (11721691_x_at) / Fold change /veh CYB561 (11721691_x_at) / RFU ANKRD19P (11752326_a_at) / Fold change /veh ANKRD19P (11752326_a_at) / RFU OR2T12 /// OR2T33 /// OR2T8 (11738714_s_at) / Fold change /veh OR2T12 /// OR2T33 /// OR2T8 (11738714_s_at) / RFU VCAN (11748164_a_at) / Fold change /veh VCAN (11748164_a_at) / RFU JSRP1 (11732532_at) / Fold change /veh JSRP1 (11732532_at) / RFU KRTAP10-11 (11738290_x_at) / Fold change /veh KRTAP10-11 (11738290_x_at) / RFU MYO3A (11730013_a_at) / Fold change /veh MYO3A (11730013_a_at) / RFU EBF3 (11725865_a_at) / Fold change /veh EBF3 (11725865_a_at) / RFU CAMK2N1 (11719241_x_at) / Fold change /veh CAMK2N1 (11719241_x_at) / RFU C5orf56 (11738088_a_at) / Fold change /veh C5orf56 (11738088_a_at) / RFU OLFML3 (11715873_a_at) / Fold change /veh OLFML3 (11715873_a_at) / RFU LOC100653217 /// NTM (11731650_a_at) / Fold change /veh LOC100653217 /// NTM (11731650_a_at) / RFU MAPK11 (11762145_a_at) / Fold change /veh MAPK11 (11762145_a_at) / RFU FIZ1 (11724087_x_at) / Fold change /veh FIZ1 (11724087_x_at) / RFU OASL (11726364_x_at) / Fold change /veh OASL (11726364_x_at) / RFU SOX15 (11748057_x_at) / Fold change /veh SOX15 (11748057_x_at) / RFU CD79A (11719716_a_at) / Fold change /veh CD79A (11719716_a_at) / RFU HIST1H1D (11736915_at) / Fold change /veh HIST1H1D (11736915_at) / RFU CASKIN2 (11723855_a_at) / Fold change /veh CASKIN2 (11723855_a_at) / RFU LOC730098 (11760151_x_at) / Fold change /veh LOC730098 (11760151_x_at) / RFU OR4N2 (11742367_at) / Fold change /veh OR4N2 (11742367_at) / RFU PRRT2 (11749266_a_at) / Fold change /veh PRRT2 (11749266_a_at) / RFU SNX32 (11753110_a_at) / Fold change /veh SNX32 (11753110_a_at) / RFU CDHR5 (11726645_a_at) / Fold change /veh CDHR5 (11726645_a_at) / RFU RCAN1 (11760418_a_at) / Fold change /veh RCAN1 (11760418_a_at) / RFU FAM167A (11723789_a_at) / Fold change /veh FAM167A (11723789_a_at) / RFU FAM26E (11764081_at) / Fold change /veh FAM26E (11764081_at) / RFU ISYNA1 (11749810_s_at) / Fold change /veh ISYNA1 (11749810_s_at) / RFU ACY1 (11761880_at) / Fold change /veh ACY1 (11761880_at) / RFU 11764098_at / Fold change /veh 11764098_at / RFU SAMD14 (11745864_x_at) / Fold change /veh SAMD14 (11745864_x_at) / RFU NPB (11741838_a_at) / Fold change /veh NPB (11741838_a_at) / RFU TMPRSS6 (11731388_a_at) / Fold change /veh TMPRSS6 (11731388_a_at) / RFU KRTAP10-2 (11738614_at) / Fold change /veh KRTAP10-2 (11738614_at) / RFU ARHGAP8 /// PRR5-ARHGAP8 (11727945_x_at) / Fold change /veh ARHGAP8 /// PRR5-ARHGAP8 (11727945_x_at) / RFU KRTAP5-7 /// NADSYN1 (11734609_at) / Fold change /veh KRTAP5-7 /// NADSYN1 (11734609_at) / RFU RASL12 (11751679_a_at) / Fold change /veh RASL12 (11751679_a_at) / RFU CDKN2B (11736163_a_at) / Fold change /veh CDKN2B (11736163_a_at) / RFU PRF1 (11729649_at) / Fold change /veh PRF1 (11729649_at) / RFU, ZNF638 /// ZNF638-IT1 / Fold change vs veh, ZNF638 /// ZNF638-IT1 / RFU, PANK3 / Fold change vs veh, PANK3 / RFU, SH3YL1 / Fold change vs veh, SH3YL1 / RFU, ZEB2 / Fold change vs veh, ZEB2 / RFU, NRIP1 / Fold change vs veh, NRIP1 / RFU, PTTG1IP / Fold change vs veh, PTTG1IP / RFU, CAPN2 / Fold change vs veh, CAPN2 / RFU, MED14 / Fold change vs veh, MED14 / RFU, SNORA58 / Fold change vs veh, SNORA58 / RFU, C1orf63 / Fold change vs veh, C1orf63 / RFU, LRRFIP1 / Fold change vs veh, LRRFIP1 / RFU, NDUFAF7 / Fold change vs veh, NDUFAF7 / RFU, SLC12A2 / Fold change vs veh, SLC12A2 / RFU, IBTK / Fold change vs veh, IBTK / RFU, ESF1 / Fold change vs veh, ESF1 / Fold change vs veh, TMEM50B / RFU, TAOK1 / Fold change vs veh, TAOK1 / RFU, ACBD3 / Fold change vs veh, ACBD3 / RFU, TMA16 / Fold change vs veh, TMA16 / RFU, RWDD3 / Fold change vs veh, RWDD3 / RFU, BCAT1 / Fold change vs veh, BCAT1 / RFU, EDEM3 / Fold change vs veh, EDEM3 / RFU, TMEM33 / Fold change vs veh, TMEM33 / RFU, WDR75 / Fold change vs veh, WDR75 / RFU, AHCTF1 / Fold change vs veh, AHCTF1 / RFU, TFRC / Fold change vs veh, TFRC / RFU, ZDHHC17 / Fold change vs veh, ZDHHC17 / RFU, NOM1 / Fold change vs veh, NOM1 / RFU, ARL8B / Fold change vs veh, ARL8B / RFU, ZBTB11 / Fold change vs veh, ZBTB11 / RFU, TAMM41 / Fold change vs veh, TAMM41 / RFU, KIAA1704 /// LOC100996395 / Fold change vs veh, KIAA1704 /// LOC100996395 / RFU, ING1 / Fold change vs veh, ING1 / RFU, TRMT61B / Fold change vs veh, TRMT61B / RFU, FUBP3 / Fold change vs veh, FUBP3 / RFU, TP53 / Fold change vs veh, TP53 / RFU, TNKS2 / Fold change vs veh, TNKS2 / RFU, ZFP14 / Fold change vs veh, ZFP14 / RFU, ACTR2 / Fold change vs veh, ACTR2 / RFU, PPP3R1 / Fold change vs veh, PPP3R1 / RFU, PIK3R1 / Fold change vs veh, PIK3R1 / RFU, HNRNPA1 / Fold change vs veh, HNRNPA1 / RFU, RNF170 / Fold change vs veh, RNF170 / RFU, ZNF28 / Fold change vs veh, ZNF28 / RFU, RNGTT / Fold change vs veh, RNGTT / RFU, OGT / Fold change vs veh, OGT / RFU, BRD1 / Fold change vs veh, BRD1 / RFU, MARS / Fold change vs veh, MARS / RFU, ZNF655 / Fold change vs veh, ZNF655 / RFU, FAHD1 / Fold change vs veh, FAHD1 / RFU, BDP1 / Fold change vs veh, BDP1 / RFU, LRRCC1 / Fold change vs veh, LRRCC1 / RFU, ARID1A / Fold change vs veh, ARID1A / RFU, ZNF146 / Fold change vs veh, ZNF146 / RFU, ZNF330 / Fold change vs veh, ZNF330 / RFU, GPN3 / Fold change vs veh, GPN3 / RFU, C9orf123 / Fold change vs veh, C9orf123 / RFU, N4BP2L2 / Fold change vs veh, N4BP2L2 / RFU, ARFIP1 / Fold change vs veh, ARFIP1 / RFU, FAM179B / Fold change vs veh, FAM179B / RFU, BCL10 / Fold change vs veh, BCL10 / RFU, UHRF1BP1L / Fold change vs veh, UHRF1BP1L / RFU, BET1 / Fold change vs veh, BET1 / RFU, CNOT2 / Fold change vs veh, CNOT2 / RFU, ZNF268 / Fold change vs veh, ZNF268 / Fold change vs veh, ZNF507 / RFU, DGCR2 / Fold change vs veh, DGCR2 / RFU, WDSUB1 / Fold change vs veh, WDSUB1 / Fold change vs veh, HSP90B1 /// MIR3652 / RFU, ADSS / Fold change vs veh, ADSS / RFU, GK / Fold change vs veh, GK / RFU, ZNF148 / Fold change vs veh, ZNF148 / RFU, TAF9 / Fold change vs veh, TAF9 / RFU, SLC1A5 / Fold change vs veh, SLC1A5 / RFU, SLMO2 / Fold change vs veh, SLMO2 / RFU, ABCC4 / Fold change vs veh, ABCC4 / RFU, LOC101060439 /// RAP1B / Fold change vs veh, LOC101060439 /// RAP1B / RFU, RFX7 / Fold change vs veh, RFX7 / RFU, GTPBP10 / Fold change vs veh, GTPBP10 / RFU, CNEP1R1 / Fold change vs veh, CNEP1R1 / RFU, BIVM-ERCC5 /// ERCC5 / Fold change vs veh, BIVM-ERCC5 /// ERCC5 / RFU, ILF3 / Fold change vs veh, ILF3 / RFU 11762660_at / Fold change /veh 11762660_at / RFU VCAN (11757783_s_at) / Fold change /veh VCAN (11757783_s_at) / RFU DDX43 (11728927_at) / Fold change /veh DDX43 (11728927_at) / RFU KRT8 (11758188_x_at) / Fold change /veh KRT8 (11758188_x_at) / RFU NKD1 (11759106_at) / Fold change /veh NKD1 (11759106_at) / RFU SRD5A1 (11742802_a_at) / Fold change /veh SRD5A1 (11742802_a_at) / RFU TPSAB1 /// TPSB2 (11721975_s_at) / Fold change /veh TPSAB1 /// TPSB2 (11721975_s_at) / RFU GSTM3 (11746129_a_at) / Fold change /veh GSTM3 (11746129_a_at) / RFU IL23R (11737362_x_at) / Fold change /veh IL23R (11737362_x_at) / RFU TMEM51 (11727254_a_at) / Fold change /veh TMEM51 (11727254_a_at) / RFU PIWIL2 (11732686_x_at) / Fold change /veh PIWIL2 (11732686_x_at) / RFU ORM1 (11744905_x_at) / Fold change /veh ORM1 (11744905_x_at) / RFU CCDC152 (11743942_at) / Fold change /veh CCDC152 (11743942_at) / RFU ECM1 (11717891_a_at) / Fold change /veh ECM1 (11717891_a_at) / RFU IL23R (11748794_a_at) / Fold change /veh IL23R (11748794_a_at) / RFU TNFAIP8L3 (11732012_x_at) / Fold change /veh TNFAIP8L3 (11732012_x_at) / RFU MBOAT4 (11741988_at) / Fold change /veh MBOAT4 (11741988_at) / RFU 11764193_at / Fold change /veh 11764193_at / RFU TMEM53 (11763286_at) / Fold change /veh TMEM53 (11763286_at) / RFU MAGEB2 (11727129_at) / Fold change /veh MAGEB2 (11727129_at) / RFU TMEM200A (11744735_a_at) / Fold change /veh TMEM200A (11744735_a_at) / RFU CCDC152 (11751479_a_at) / Fold change /veh CCDC152 (11751479_a_at) / RFU FAM211A (11726209_a_at) / Fold change /veh FAM211A (11726209_a_at) / RFU RGS16 (11746705_a_at) / Fold change /veh RGS16 (11746705_a_at) / RFU VCAN (11755009_s_at) / Fold change /veh VCAN (11755009_s_at) / RFU RHOB (11743442_s_at) / Fold change /veh RHOB (11743442_s_at) / RFU RGS16 (11720943_a_at) / Fold change /veh RGS16 (11720943_a_at) / RFU RGS16 (11720944_at) / Fold change /veh RGS16 (11720944_at) / RFU, VPS4B / Fold change vs veh, VPS4B / RFU, CREB1 / Fold change vs veh, CREB1 / RFU, DNAJC13 / Fold change vs veh, DNAJC13 / RFU, GNAQ / Fold change vs veh, GNAQ / RFU, CDK5R1 / Fold change vs veh, CDK5R1 / RFU, ZRANB3 / Fold change vs veh, ZRANB3 / RFU, CUL4A / Fold change vs veh, CUL4A / RFU, CCNY / Fold change vs veh, CCNY / RFU, UFL1 / Fold change vs veh, UFL1 / RFU, COG3 / Fold change vs veh, COG3 / RFU, DIAPH2 / Fold change vs veh, DIAPH2 / RFU, SKA2 / Fold change vs veh, SKA2 / RFU, AFF3 / Fold change vs veh, AFF3 / RFU, LMF1 / Fold change vs veh, LMF1 / RFU, IPO11 / Fold change vs veh, IPO11 / RFU, DFFB / Fold change vs veh, DFFB / RFU, FOXP1 / Fold change vs veh, FOXP1 / RFU, CARD8 / Fold change vs veh, CARD8 / RFU, STRN3 / Fold change vs veh, STRN3 / RFU, ADK / Fold change vs veh, ADK / RFU, RASSF2 / Fold change vs veh, RASSF2 / RFU, WIPF1 / Fold change vs veh, WIPF1 / RFU, LARP1B / Fold change vs veh, LARP1B / RFU, RASA1 / Fold change vs veh, RASA1 / RFU, RB1 / Fold change vs veh, RB1 / RFU, PPFIA1 / Fold change vs veh, PPFIA1 / RFU, MAT2A / Fold change vs veh, MAT2A / RFU, CCT5 / Fold change vs veh, CCT5 / RFU, WDR92 / Fold change vs veh, WDR92 / RFU, CUX1 / Fold change vs veh, CUX1 / RFU, TTC7A / Fold change vs veh, TTC7A / RFU, TMEM135 / Fold change vs veh, TMEM135 / RFU, DEPTOR / Fold change vs veh, DEPTOR / RFU, CPM / Fold change vs veh, CPM / RFU, DNAJB6 / Fold change vs veh, DNAJB6 / RFU, CACNA2D3 / Fold change vs veh, CACNA2D3 / RFU, DTX4 / Fold change vs veh, DTX4 / RFU, TFCP2 / Fold change vs veh, TFCP2 / RFU, GMCL1 /// GMCL1P1 / Fold change vs veh, GMCL1 /// GMCL1P1 / RFU, AEBP2 / Fold change vs veh, AEBP2 / RFU, SNHG1 /// SNORD22 /// SNORD25 /// SNORD26 /// SNORD27 /// SNORD28 /// SNORD29 /// SNORD31 / Fold change vs veh, SNHG1 /// SNORD22 /// SNORD25 /// SNORD26 /// SNORD27 /// SNORD28 /// SNORD29 /// SNORD31 / Fold change (Aza/veh), C12orf56 (ProbeSet 11735607_a_at) / Fold change (ACY-1035/veh), C12orf56 (ProbeSet 11735607_a_at) / Fold change (Aza/veh), FGFR1OP (ProbeSet 11751329_s_at) / Fold change (ACY-1035/veh), FGFR1OP (ProbeSet 11751329_s_at) / Fold change (Aza/veh), VPS36 (ProbeSet 11739960_a_at) / Fold change (ACY-1035/veh), VPS36 (ProbeSet 11739960_a_at) / RFU SYPL1 (11715823_x_at) / Fold change /veh SYPL1 (11715823_x_at) / RFU IGFBP7 (11715501_s_at) / Fold change /veh IGFBP7 (11715501_s_at) / RFU REEP3 (11722064_at) / Fold change /veh REEP3 (11722064_at) / RFU IGLL1 (11728026_x_at) / Fold change /veh IGLL1 (11728026_x_at): dose or concentration left out as unconfirmed
Details: ProbeSet 11722022_s_at; LIST D

With Nc1ccc(-c2cccs2)cc1NC(=O)c1ccc2c(c1)cc(C1CC1)n2CCN1CCOCC1 [ACY-1035] the “RFU, CDK5R1” value was 47.94 RFU.
